“Also recorded” adds a separate entry of the source.
How the values were obtained:
ERK phosphorylation = assay: Western blot of ERK phosphorylation in A375 cells expressing NRAS^Q61K; assay type: cell-based; conditions: 24 hours
[1] = tested on: A375 NRAS^Q61K mutant melanoma cell line xenograft; assay: In vivo efficacy in A375 NRAS^Q61K mutant melanoma xenograft; parameters: species or system BALBc/Nude mice; conditions: oral gavage
BRAF V600E [2] = target: T1, BRAF V600E (Homo sapiens, UniProt P15056, V600E); assay: Western blot of engineered HEK-293T cells expressing BRAF V600E; assay type: cell-based; conditions: lentivirus expression
[3] = target: T2, BRAF class II mutant G469A (Homo sapiens, UniProt P15056, G469A); assay: Western blot of engineered HEK-293T cells expressing class II mutant G469A; assay type: cell-based; conditions: lentivirus expression
T2 construct: host or cells: HEK-293T, lentiviral expression

[4] = target: T3, BRAF class III mutant G466V (Homo sapiens, UniProt P15056, G466V); assay: Western blot of engineered HEK-293T cells expressing class III mutant G466V; assay type: cell-based; conditions: lentivirus expression
T3 construct: host or cells: HEK-293T, lentiviral expression

[5] = tested on: H1666 cells endogenously expressing the class III BRAF mutation G466V; assay: Cellular growth over time in H1666 cells; assay type: cell-based
A375 cells = assay: Cellular confluence of A375 cells by live cell imaging; assay type: cell-based; conditions: end of the 7-day experiment
BRAF V600E [6] = target: T1, BRAF V600E; assay: Global proteomics profiling, A375 cells; assay type: cell-based; parameters: endogenous in cells; host or cells: A375; conditions: 300 nM, 24 hours, compared to 300 nM dabrafenib treatment
Description: (§1) Each cell line was treated in duplicate with either DMSO or Compound 157 (final concentration 300 nM) for 24 hours in an incubator at 37° C. with 5% CO2. After the 24-hour incubation, cells were harvested, washed twice with PBS, and snap frozen in liquid nitrogen. Samples were re-suspended in lysis buffer [8 M urea, 50 mM HEPES (pH 8.5), 50 mM NaCl, 1× protease inhibitor cocktail] and lysed by sonication at 4° C. with 85% amplitude in a pulse setting with 30 seconds on and 30 seconds off for a total sonication time of 5 minutes. Lysates were centrifuged at maximum speed for 10 minutes at 4° C. and the supernatant collected, reduced for 1 hour at room temperature with 5 mM TCEP, and the cysteine residues were then alkylated with 15 mM iodoacetamide (room temperature, in dark, 30 minutes). Protein content was extracted by methanol-chloroform precipitation and subsequent ice-cold acetone washes. Protein pellets were resuspended in 8 M urea, 50 mM HEPES (pH 8.5) buffer and protein concentrations were measured by BCA assay. […]
(§2) For peptide tandem mass tag (TMT) labeling, 100 μg of peptides per sample was prepared at […] concentration in 200 mM HEPES (pH 8.5), 30% acetonitrile (ACN) and each the specific TMT reagent. […] TMT reporter ion intensities were quantified by extracting the signal-to-noise ratio for each. […]

ARAF [7] = target: T4, ARAF (Homo sapiens, UniProt P10398); assay: Global proteomics profiling, A375 cells; assay type: cell-based; parameters: endogenous in cells; host or cells: A375 (A7.2); conditions: 300 nM, 24 hours
Description: as §1, §2

ARAF [8] = target: T4, ARAF; assay: Global proteomics profiling, JURKAT cells; assay type: cell-based; parameters: endogenous in cells; host or cells: JURKAT, ATCC TIB-152 (A11.2); conditions: 300 nM, 24 hours
Description: as §1, §2

T1 sequence (P15056 whole entry V600E): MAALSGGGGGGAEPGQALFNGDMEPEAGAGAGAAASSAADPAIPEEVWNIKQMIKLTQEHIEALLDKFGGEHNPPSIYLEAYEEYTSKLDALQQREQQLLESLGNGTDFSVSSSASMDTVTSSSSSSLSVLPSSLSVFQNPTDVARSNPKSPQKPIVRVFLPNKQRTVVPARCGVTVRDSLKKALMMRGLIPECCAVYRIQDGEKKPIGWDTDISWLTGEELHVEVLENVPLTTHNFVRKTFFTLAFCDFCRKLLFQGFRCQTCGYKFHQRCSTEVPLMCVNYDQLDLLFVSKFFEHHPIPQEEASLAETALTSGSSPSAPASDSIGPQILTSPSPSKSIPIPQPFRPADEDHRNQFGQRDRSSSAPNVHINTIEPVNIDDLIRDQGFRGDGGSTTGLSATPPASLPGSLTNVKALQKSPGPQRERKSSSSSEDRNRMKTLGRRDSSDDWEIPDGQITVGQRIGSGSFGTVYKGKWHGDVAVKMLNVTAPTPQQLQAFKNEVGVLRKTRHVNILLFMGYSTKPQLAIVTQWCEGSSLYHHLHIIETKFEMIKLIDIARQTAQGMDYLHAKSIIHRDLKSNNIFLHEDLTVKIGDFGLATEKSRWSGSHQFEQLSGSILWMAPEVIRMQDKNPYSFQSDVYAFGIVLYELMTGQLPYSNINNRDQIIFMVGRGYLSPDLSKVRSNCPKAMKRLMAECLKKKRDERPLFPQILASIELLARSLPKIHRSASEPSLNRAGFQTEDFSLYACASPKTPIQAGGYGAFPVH
T4 sequence (P10398 whole entry): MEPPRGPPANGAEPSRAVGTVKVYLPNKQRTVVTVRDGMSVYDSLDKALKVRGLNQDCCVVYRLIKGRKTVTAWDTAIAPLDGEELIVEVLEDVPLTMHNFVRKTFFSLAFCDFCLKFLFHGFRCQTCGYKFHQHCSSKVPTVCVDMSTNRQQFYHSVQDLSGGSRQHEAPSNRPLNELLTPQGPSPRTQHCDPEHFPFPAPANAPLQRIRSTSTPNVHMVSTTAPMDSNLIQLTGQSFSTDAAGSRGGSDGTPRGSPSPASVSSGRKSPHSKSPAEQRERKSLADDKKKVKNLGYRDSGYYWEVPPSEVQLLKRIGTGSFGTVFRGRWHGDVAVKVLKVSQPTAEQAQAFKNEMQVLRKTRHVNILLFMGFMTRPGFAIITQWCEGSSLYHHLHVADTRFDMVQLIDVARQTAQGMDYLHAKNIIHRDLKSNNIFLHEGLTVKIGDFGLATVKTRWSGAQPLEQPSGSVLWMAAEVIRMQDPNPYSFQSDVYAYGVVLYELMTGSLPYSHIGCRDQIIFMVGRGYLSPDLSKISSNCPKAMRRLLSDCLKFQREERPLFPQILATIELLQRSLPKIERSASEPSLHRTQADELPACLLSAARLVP
T3 sequence (P15056 whole entry G466V): as the sequence (P15056 whole entry V600E) above, with G466V, E600V counted along it
T2 sequence (P15056 whole entry G469A): as the sequence (P15056 whole entry V600E) above, with G469A, E600V counted along it

In the case of `CCN(C)S(=O)(=O)Nc1ccc(F)c(Oc2ccc3ncn([C@H]4COC5(CCN(C(=O)CC6(O)CCN(c7cc8c(cc7F)c(N7CCC(=O)NC7=O)nn8C)CC6)CC5)C4)c(=O)c3c2)c1C#N` [Compound 157, (3R)-3-[6-[2-cyano-3-[[ethyl(methyl)sulfamoyl]amino]-6-fluorophenoxy]-4-oxoquinazolin-3-yl]-8-[2-[1-[3-(2,4-dioxo-1,3-diazinan-1-yl)-5-fluoro-1-methylindazol-6-yl]-4-hydroxypiperidin-4-yl]acetyl]-1-oxa-8-azaspiro[4.5]decane], the “ERK phosphorylation, in combination with trametinib” value (ERK phosphorylation; with 1 nM trametinib) is reported as “completely suppressed”, the “ERK phosphorylation, alone” value (ERK phosphorylation; without trametinib) is reported as “can suppress MAPK signaling” and the “tumor response, single agent” value ([1]; single agent) is reported as “robust tumor growth inhibition; also recorded: efficacious”. For the same molecule, the “tumor response, in combination with trametinib” value ([1]; with MEKi trametinib 0.1 mg/kg BID) was “tumor regressions”, the “degradation of BRAF V600E” value (BRAF V600E [2]) was “capable of degrading” and the “degradation of class II mutant G469A” value [3] was “capable of degrading”. For the same molecule, the “degradation of class III mutant G466V” value [4] was “capable of degrading”, the cell growth inhibition ([5]; G466V) was “effective” and the confluency ([5]; over the course of 7 days) was at most 30%. The “cell growth, in combination with trametinib” value ([5]; with 1 nM trametinib) was “failed to expand”, the cellular confluence (A375 cells) was about 20% and the “BRAF^V600E protein remaining” value (BRAF V600E [6]) was 27%. The “ARAF protein level change” value (ARAF [7]) was “remain largely unchanged” and the “ARAF protein level change” value (ARAF [8]) was “unchanged”.
